Source: patent US5633233A, “Modified kojibiosides analogues” (priority 1995, dated 1997)
Read-outs that look alike come from different tables or passages of the source. One block for each compound: values may come before it.

Assays:
[1] = tested on: α-glucosidase I from yeast microsomal preparation; conditions: cited from earlier work
[2] = tested on: α-glucosidase I from rat liver microsomes; conditions: cited from earlier work
[3] = tested on: α-glucosidase I from mung bean seedlings; conditions: cited from earlier work
[4] = tested on: α-glucosidase I from bovine mammary gland; conditions: cited from earlier work
α-glucosidase = conditions: cited from earlier work
glucosidase I = molecular target: T1, glucosidase I (Bos taurus, UniProt A0A3Q1M9D9); assay: Assay for glucosidase I activity (14C-Glc3Man9GlcNAc2 substrate, ConA-Sepharose, scintillation counting); format: biochemical, calf; conditions: 1 mM concentration
T1 construct: Glucosidase I was solubilized from calf pancreas microsomes; from tissue; host or cells: calf pancreas microsomes
T1 sequence (A0A3Q1M9D9 1-839): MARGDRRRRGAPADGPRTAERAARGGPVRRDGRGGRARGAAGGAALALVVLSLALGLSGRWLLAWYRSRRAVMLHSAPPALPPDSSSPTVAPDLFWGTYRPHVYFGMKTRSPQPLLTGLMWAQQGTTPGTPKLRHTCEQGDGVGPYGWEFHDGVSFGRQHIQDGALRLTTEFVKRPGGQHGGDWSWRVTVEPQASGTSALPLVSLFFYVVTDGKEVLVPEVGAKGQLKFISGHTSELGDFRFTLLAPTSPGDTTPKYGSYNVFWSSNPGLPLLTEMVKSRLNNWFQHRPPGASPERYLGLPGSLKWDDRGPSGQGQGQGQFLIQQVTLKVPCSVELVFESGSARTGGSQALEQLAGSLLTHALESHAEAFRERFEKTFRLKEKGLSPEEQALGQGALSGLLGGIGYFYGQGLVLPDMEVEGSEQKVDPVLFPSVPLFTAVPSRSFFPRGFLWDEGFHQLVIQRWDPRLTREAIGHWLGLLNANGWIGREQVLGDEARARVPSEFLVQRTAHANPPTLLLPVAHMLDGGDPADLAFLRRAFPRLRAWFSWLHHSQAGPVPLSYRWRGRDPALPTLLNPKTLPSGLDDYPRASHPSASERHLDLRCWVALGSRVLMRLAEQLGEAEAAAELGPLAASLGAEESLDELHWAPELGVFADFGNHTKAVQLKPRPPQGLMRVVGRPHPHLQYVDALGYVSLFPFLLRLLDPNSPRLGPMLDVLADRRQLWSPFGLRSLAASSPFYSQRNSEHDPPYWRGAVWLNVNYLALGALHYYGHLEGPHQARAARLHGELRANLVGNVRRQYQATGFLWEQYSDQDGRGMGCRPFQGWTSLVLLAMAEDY
Protocol: Some of the compounds described herein were evaluated as inhibitors of glucosidase I activity. Glucosidase I was purified by a literature procedure as follows. To prepare an affinity matrix, carboxypentyl-deoxynojirimycin was coupled with Affigel 102 according to Shailubhai et al^51. Glucosidase I was solubilized from calf pancreas microsomes, and purified from glucosidase II activity by affinity chromatography according to the same authors.
Substrates for Assay of Glucosidase I ^14 C-labelled Glc3 Man9 GlcNAc2 -PP-Dol was prepared by the incubation of UDP-[^14 C]Glc with calf pancreas microsomes as described by Herscovien et al^52. Glc3 Man9 GlcNAc2 was released by mild acid hydrolysis and purified by BioGel P4 chromatography.
Assay for Glucosidase I Activity
Affinity purified glucosidase I was assayed as described by Saunier et al.^53 by adsorption of undigested substrate […] to ConA-Sepharose and scintillation counting of [^14 C]Glc in the column eluent. Oligosaccharides as potential inhibitors were evaluated using castanospermine as a baseline inhibitor.

[5] = affinity purified glucosidase I from calf pancreas microsomes, read-out: inhibition of glucosidase I activity

SMILES: OC[C@H]1O[C@H](O[C@H]2C(O)O[C@H](CO)[C@@H](O)[C@@H]2O)[C@H](O)[C@@H](O)[C@@H]1O (stereo partly drawn) [Kojibiose]
inhibition of α-glucosidase I [1]: inhibited
inhibition of α-glucosidase I [2]: inhibited
inhibition of α-glucosidase I [3]: inhibited
inhibition of α-glucosidase I [4]: inhibited

SMILES: C[C@H]1O[C@H](O[C@H]2[C@H](O)[C@@H](O)[C@@H](O[C@H]3[C@H](O)[C@@H](O)C(O)O[C@@H]3CO)O[C@@H]2CO)[C@H](O)[C@@H](O)[C@@H]1N[C@H]1C=C(CO)[C@@H](O)[C@H](O)[C@H]1O (stereo partly drawn) [acarbose]
α-glucosidase inhibition (α-glucosidase): potent

inhibition at 1000 µM (glucosidase I; [5]): 20%
SMILES: COC(=O)CCCCCCCCO[C@H]1O[C@H](CO)[C@@H](O)[C@H](O)[C@H]1O[C@H]1O[C@H](CO)[C@@H](O)[C@H](O)[C@H]1O [compound 44, 8-Methoxycarbonyloctyl 2-O-(α-D-glucopyranosyl)-α-D-glucopyranoside]

inhibition at 1000 µM (glucosidase I; versus known compound 44, read-out: increase in inhibition activity relative to compound 44): 70%
inhibition at 1000 µM (glucosidase I; [5]): 34%
SMILES: COC(=O)CCCCCCCCO[C@H]1O[C@H](CN)[C@@H](O)[C@H](O)[C@H]1O[C@H]1O[C@H](CO)[C@@H](O)[C@H](O)[C@H]1O [compound 57, 8-Methoxycarbonyloctyl 6-amino-6-deoxy-2-O-(α-D-glucopyranosyl)-α-D-glucopyranoside]

SMILES: C[C@H]1O[C@H](O[C@H]2[C@H](O)[C@@H](O)[C@@H](O[C@H]3[C@H](O)[C@@H](O)[C@@H](O)O[C@@H]3CO)O[C@@H]2CO)[C@H](O)[C@@H](O)[C@@H]1N[C@H]1C[C@H](CO)[C@@H](O)[C@H](O)[C@H]1O [dihydroacarbose]
α-glucosidase inhibition (α-glucosidase): potent
